This note sets out measurements from ChEMBL document CHEMBL1275320, “Positive allosteric modulators of the α-amino-3-hydroxy-5-methyl-4-isoxazolepropionic acid (AMPA) receptor” (J Med Chem, 2010).

Structures are written as SMILES. “And” between values parts separate entries of the source, which are not always exact repeats. Equal entries are not always repeated. Some results are limits rather than exact numbers.

Test [1] has as its target Glutamate receptor AMPA 3/4 (Homo sapiens, UniProt P42263+P48058). As to the kind of experiment: Inhibition of GluR3/4 expressed in Xenopus oocyte.
Test [2] in a line: Agonist activity at AMPA receptor in rat cortical neurons assessed as change in increase in AMPA current. It is filed as functional.
Test [3] has as its target T1, Glutamate receptor 2 (Homo sapiens, UniProt P42262). As to the kind of experiment: Inhibition of human recombinant GluR2.
Test [4] has as its target T1, Glutamate receptor 2. As to the kind of experiment: Agonist activity at GluR2 receptor. Type of test: functional.
The target in test [5] is Glutamate receptor 4 (Homo sapiens, UniProt P48058). As to the kind of experiment: Inhibition of GluR4 expressed in HEK293 cells. It is filed as cell-based.
The nature of test [6]: Agonist activity at AMPA receptor by FLIPR assay. It is filed as functional.
Test [7] has as its target Glutamate receptor AMPA 3/4 (Rattus norvegicus, UniProt P19492+P19493). As to the kind of experiment: Inhibition of GluR3/4 rat in hippocampal neuron. It is filed as tissue-based, Hippocampus.
The next test addresses Glutamate receptor 1 (Homo sapiens, UniProt P42261). As to the kind of experiment: Inhibition of GluR1 expressed in HEK cells. It is filed as cell-based, HEK293.
The target of test [8] is T1, Glutamate receptor 2. As to the kind of experiment: Inhibition of GluR2 flop expressed in HEK cells. Type of test: cell-based, HEK293.
For the next test, the species on record is Rattus norvegicus. Kind of test: Agonist activity at rat AMPA receptor assessed as change in EPSC amplitude. It is filed as functional.
The nature of test [9]: Agonist activity at AMPA receptor at 30 uM by FLIPR assay. It is filed as functional.
A short description of test [10]: Agonist activity at rat AMPA receptor assessed as AMPA-induced calcium uptake. Type of test: functional.
Test [11] concerns the target Glutamate receptor 4 (Rattus norvegicus, UniProt P19493). Kind of test: Inhibition of rat recombinant GluR4 in cells.
The next test concerns the target Glutamate receptor 3 (Homo sapiens, UniProt P42263). Kind of test: Inhibition of GluR3 expressed in HEK cells. It is filed as cell-based, HEK293.
For test [12], the target named is T1, Glutamate receptor 2. Kind of test: Inhibition of GluR2 expressed in HEK cells at 3 uM. Type of test: cell-based. To be noted: HEK293.

T1 sequence (P42262 whole entry): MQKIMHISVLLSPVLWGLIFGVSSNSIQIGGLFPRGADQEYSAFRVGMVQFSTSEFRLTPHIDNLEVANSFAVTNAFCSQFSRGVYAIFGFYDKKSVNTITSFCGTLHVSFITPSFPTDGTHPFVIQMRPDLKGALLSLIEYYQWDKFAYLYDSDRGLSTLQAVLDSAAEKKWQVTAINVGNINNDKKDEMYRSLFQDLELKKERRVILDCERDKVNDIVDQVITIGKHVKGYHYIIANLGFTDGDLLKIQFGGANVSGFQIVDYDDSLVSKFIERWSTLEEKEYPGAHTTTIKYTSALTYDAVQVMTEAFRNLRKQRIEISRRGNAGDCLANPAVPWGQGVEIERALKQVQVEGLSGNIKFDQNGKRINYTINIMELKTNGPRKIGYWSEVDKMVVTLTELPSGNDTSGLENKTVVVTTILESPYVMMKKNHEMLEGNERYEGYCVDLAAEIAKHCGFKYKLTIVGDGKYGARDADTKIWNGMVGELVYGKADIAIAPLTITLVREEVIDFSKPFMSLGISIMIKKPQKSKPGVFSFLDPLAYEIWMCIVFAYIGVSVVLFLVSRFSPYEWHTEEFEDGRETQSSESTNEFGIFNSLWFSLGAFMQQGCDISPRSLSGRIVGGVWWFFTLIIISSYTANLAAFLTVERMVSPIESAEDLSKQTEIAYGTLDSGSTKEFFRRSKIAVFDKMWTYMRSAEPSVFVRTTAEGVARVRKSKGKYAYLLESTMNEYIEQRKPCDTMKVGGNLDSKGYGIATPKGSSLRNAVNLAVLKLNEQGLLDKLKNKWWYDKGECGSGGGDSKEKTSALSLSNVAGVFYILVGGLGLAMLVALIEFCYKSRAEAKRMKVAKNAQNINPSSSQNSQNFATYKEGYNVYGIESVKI
Sequence of Glutamate receptor 1 (P42261 whole entry): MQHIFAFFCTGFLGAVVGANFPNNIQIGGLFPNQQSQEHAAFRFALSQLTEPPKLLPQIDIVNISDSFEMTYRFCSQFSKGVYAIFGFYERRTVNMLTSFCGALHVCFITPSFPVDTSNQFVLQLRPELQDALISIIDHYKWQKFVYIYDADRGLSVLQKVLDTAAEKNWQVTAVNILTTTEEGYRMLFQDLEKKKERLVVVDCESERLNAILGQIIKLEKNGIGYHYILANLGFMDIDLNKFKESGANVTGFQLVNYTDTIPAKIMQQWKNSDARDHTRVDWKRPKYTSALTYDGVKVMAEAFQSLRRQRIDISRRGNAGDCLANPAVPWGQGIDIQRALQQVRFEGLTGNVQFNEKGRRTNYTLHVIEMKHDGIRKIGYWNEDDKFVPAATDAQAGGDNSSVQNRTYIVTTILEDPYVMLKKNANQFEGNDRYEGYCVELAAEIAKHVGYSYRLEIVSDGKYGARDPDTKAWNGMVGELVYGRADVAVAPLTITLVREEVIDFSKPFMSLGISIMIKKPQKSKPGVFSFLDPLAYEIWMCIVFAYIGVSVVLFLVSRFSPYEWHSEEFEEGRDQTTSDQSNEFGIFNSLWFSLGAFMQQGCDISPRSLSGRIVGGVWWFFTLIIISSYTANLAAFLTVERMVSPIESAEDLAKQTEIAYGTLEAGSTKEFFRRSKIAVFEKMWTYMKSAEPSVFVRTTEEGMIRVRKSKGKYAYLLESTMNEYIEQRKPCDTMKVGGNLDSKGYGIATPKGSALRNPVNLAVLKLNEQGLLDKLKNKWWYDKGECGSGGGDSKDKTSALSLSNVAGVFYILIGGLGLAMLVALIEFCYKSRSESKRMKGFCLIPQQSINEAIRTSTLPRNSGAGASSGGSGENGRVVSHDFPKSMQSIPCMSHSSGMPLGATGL
Sequence of Glutamate receptor AMPA 3/4 (Rattus norvegicus, UniProt P19492+P19493) (P19492 whole entry): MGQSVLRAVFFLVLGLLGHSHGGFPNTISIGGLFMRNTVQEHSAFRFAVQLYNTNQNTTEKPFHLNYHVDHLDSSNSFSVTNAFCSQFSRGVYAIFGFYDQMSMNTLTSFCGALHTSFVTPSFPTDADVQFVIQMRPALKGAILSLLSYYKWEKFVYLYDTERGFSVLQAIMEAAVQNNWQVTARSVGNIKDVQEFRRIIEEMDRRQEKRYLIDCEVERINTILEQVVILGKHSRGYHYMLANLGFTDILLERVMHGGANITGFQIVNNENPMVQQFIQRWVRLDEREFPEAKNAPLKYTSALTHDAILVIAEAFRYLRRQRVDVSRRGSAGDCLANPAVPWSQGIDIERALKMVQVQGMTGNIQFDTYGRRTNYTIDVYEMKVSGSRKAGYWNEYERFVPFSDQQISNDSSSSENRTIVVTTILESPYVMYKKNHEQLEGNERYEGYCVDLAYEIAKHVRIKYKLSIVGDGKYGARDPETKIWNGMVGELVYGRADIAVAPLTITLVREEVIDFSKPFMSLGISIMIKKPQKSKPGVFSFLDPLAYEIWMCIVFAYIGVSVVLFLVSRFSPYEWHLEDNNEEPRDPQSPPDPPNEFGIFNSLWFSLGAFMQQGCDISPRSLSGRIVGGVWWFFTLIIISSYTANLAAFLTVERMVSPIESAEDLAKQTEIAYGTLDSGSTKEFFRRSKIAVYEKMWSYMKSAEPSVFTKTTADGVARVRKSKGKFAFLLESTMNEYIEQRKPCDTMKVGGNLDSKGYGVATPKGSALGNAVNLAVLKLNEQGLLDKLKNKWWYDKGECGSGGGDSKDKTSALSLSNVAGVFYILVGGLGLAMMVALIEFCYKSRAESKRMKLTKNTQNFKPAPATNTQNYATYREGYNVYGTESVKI
Sequence of Glutamate receptor AMPA 3/4 (Rattus norvegicus, UniProt P19492+P19493) (P19493 whole entry): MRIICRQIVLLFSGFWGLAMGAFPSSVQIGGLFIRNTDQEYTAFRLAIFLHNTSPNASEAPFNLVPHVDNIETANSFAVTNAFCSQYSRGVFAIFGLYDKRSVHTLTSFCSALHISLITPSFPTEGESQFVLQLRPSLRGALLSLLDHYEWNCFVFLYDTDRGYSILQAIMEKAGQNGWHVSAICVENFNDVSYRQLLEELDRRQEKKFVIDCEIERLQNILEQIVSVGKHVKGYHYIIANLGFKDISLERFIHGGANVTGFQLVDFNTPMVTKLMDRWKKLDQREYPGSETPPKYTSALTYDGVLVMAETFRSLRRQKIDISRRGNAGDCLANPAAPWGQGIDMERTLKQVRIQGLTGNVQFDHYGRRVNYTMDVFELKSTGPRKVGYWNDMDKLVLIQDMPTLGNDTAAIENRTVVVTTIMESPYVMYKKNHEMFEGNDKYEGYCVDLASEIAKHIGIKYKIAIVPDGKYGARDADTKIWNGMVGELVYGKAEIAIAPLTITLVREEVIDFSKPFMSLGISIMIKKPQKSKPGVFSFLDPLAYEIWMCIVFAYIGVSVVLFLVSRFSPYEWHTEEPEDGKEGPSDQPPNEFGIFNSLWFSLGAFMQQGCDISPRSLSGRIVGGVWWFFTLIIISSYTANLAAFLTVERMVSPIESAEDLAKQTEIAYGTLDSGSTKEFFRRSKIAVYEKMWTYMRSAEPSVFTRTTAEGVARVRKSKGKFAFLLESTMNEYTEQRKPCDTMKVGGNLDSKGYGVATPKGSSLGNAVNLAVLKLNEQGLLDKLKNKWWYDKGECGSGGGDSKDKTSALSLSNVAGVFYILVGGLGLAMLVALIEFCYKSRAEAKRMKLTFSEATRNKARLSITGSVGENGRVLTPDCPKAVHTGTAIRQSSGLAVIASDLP
Sequence of Glutamate receptor 4 (Homo sapiens, UniProt P48058) (P48058 whole entry): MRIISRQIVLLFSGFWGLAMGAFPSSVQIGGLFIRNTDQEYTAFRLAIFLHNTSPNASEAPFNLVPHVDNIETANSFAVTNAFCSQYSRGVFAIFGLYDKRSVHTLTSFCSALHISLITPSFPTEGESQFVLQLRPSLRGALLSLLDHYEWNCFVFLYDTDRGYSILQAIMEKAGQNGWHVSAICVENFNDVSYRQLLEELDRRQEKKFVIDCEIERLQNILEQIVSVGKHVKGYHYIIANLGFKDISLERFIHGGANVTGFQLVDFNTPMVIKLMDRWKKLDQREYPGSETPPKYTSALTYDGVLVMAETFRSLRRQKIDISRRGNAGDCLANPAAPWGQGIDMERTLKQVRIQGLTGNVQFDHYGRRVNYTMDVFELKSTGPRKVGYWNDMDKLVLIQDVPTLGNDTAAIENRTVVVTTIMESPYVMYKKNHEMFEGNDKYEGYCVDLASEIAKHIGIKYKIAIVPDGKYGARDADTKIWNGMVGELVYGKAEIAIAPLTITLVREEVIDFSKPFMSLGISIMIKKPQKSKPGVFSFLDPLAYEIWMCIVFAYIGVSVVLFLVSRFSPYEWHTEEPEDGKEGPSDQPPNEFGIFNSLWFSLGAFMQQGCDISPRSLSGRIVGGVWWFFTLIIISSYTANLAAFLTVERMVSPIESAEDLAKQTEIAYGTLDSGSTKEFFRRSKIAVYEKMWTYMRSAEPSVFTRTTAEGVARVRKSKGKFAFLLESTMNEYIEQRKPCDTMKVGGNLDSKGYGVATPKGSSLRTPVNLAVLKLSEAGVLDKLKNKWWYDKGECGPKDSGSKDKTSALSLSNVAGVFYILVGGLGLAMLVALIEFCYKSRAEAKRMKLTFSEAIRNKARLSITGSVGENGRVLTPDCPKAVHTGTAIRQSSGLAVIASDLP
Sequence of Glutamate receptor 4 (Rattus norvegicus, UniProt P19493) (P19493 whole entry): as the sequence (P19493 whole entry) above

As a reminder, the EC50 is the concentration at which the effect is half-maximal. As to `CC1(C)CC(=O)C2=C(C1)OC(N)=C(C#N)C2c1ccc2ccccc2c1` (stereo unspecified), the midpoint of the response in [1], the EC50, lay at 1.6 µM. Also, the EC2 in test [2] worked out at 1.6 µM.
In the case of `CC(C)S(=O)(=O)N[C@@H]1CN(C)C[C@@H]1c1ccc(-c2ccc(N(C)S(C)(=O)=O)cc2)cc1`, the EC50 on Glutamate receptor 2 [3] is 1.6 µM.
Still for that read-out and setting: to `O=C1CCCN1Cc1ccc(-n2nc(C(F)(F)F)c3c2COCC3)cc1F` belongs under 300 µM.
As to `CC(C)S(=O)(=O)N[C@@H]1CCC[C@@H]1c1ccc(Br)cc1`, the EC50 at Glutamate receptor 2 [4] was found to be 520 nM; on Glutamate receptor 4 [5], 0.52 µM.
As for `CCN1CC[C@@H](c2ccc(-c3ccccc3)cc2)[C@H](NS(=O)(=O)C(C)C)C1`, in test [6], the EC50 is under 10000 nM.
Turning to `O=C1c2cc3c(cc2OC2CCCN12)OCCO3` (stereo unspecified), the values for the EC50 (in test [7]; on Glutamate receptor 1) were 43.7 µM and 21000 nM, respectively.
`C[C@@H](CNS(C)(=O)=O)c1ccccc1` gave an EC50 at Glutamate receptor 2 [8] of 1980 µM.
Take `CC(C)S(=O)(=O)N[C@@H]1CCC[C@@H]1c1ccc(I)cc1`: on Glutamate receptor 4 [5], the midpoint of the response, the EC50, lay at 0.23 µM.
On to `O=C(c1ccc2nccnc2c1)N1CCCCC1` [CX516], for which the EC50 on Glutamate receptor 4 [5] was 156 µM and > 1000 µM; in test [7], 95 µM. Moreover, in the test listed under Rattus norvegicus, the Activity amounted to 68%.
`CC(CNS(C)(=O)=O)c1ccc(C(C)(C)C)cc1` (stereo unspecified) returned an EC50 at Glutamate receptor 4 [5] of 1.2 µM.
`CN(C)C(=O)c1ccc(-n2nc(C(F)(F)F)c3c2CCOC3)cc1` displayed an Activity in test [9] of 14%. On Glutamate receptor 2 [3], the EC50 was under 300 µM.
`CC(=O)c1s/c(=N\c2ccc(OC(F)(F)F)cc2)n(CCO)c1C` displayed an Activity in [9] of 15%. In addition, the EC50 on Glutamate receptor 2 [4] is under 200000 nM.
With `O=C(c1ccc2nonc2c1)N1CCCCC1` [FARAMPATOR], the concentration for a half-maximal effect (EC50) in test [1] is 14 µM.
For the molecule `CC(C)S(=O)(=O)NCCCCCCCCCNS(=O)(=O)C(C)C`, a half-maximal response on Glutamate receptor 1 (EC50) required 660 nM.
Regarding `O=S1(=O)N[C@H]2CCCN2c2ccc(Cl)cc21`, the EC2 in [2] stood at 60 µM.
On to `O=C(c1ccc2c(c1)OCCO2)N1CCCCC1`, for which, in test [7], the concentration for a half-maximal effect (EC50) was 1600 µM.
`O=C(Cn1nc(C(F)(F)F)c2c1CCCC2)Nc1sc2c(c1C(=O)NCCc1ccccn1)CCCC2`: the EC50 at Glutamate receptor 1 is under 10000 nM.
Consider `NS(=O)(=O)c1cc2c(cc1Cl)NC(C1CC3C=CC1C3)NS2(=O)=O` (stereo unspecified) [CYCLOTHIAZIDE], for which the EC2 in test [2] stood at 1.6 µM.
The same measure, in the same setting: to `O=C1c2cc3nnn(CCc4cccc(F)c4)c(=O)c3cc2OCN1C1CC1` belongs 0.1 µM.
Regarding `COc1ccc(C(=O)N2CCCC2=O)cc1`, the figures for the EC50 in test [10] and in [1] were over 100 µM and over 1000 µM, respectively.
Turning to `C[C@H](CNS(C)(=O)=O)c1ccc(-c2ccc([C@@H](C)CNS(C)(=O)=O)cc2)cc1`, the EC50 at Glutamate receptor 4 [11] was 870 nM.
The molecule `CC(C)S(=O)(=O)NCCCCCCCCNS(=O)(=O)C(C)C` displayed a concentration giving a half-maximal response (EC50) on Glutamate receptor 1 of 910 nM.
In the case of `O=C1CCCN1[C@H]1Cc2ccc(-n3cc(C4CC4)c(C(F)(F)F)n3)cc2C1`, on Glutamate receptor 2 [3], the half-maximal effective concentration (EC50) is under 300 µM.
The molecule `CC(C)S(=O)(=O)NCCCCCCCNS(=O)(=O)C(C)C` returned an EC50 on Glutamate receptor 1 of 2880 nM.
As for `CC(CNS(=O)(=O)C(C)C)c1ccc(-c2ccc(C#N)cc2)cc1` (stereo unspecified), the EC50 at Glutamate receptor 2 [8] stood at 1.44 µM; at Glutamate receptor 3, 1660 nM; on Glutamate receptor 2 [4], 150 nM; on Glutamate receptor 1 it was 5650 nM; in test [6], 290 nM.
One may read the inhibition as the percentage by which the read-out fell short of the control. A low value points to little suppression. At Glutamate receptor 2 [12], `CC(CNS(=O)(=O)C(C)C)c1ccc(Br)cc1` (stereo unspecified) came in with an inhibition of 26%.
On to `COCc1cccc(C(=O)N2CCCCC2)c1`, for which the Activity in the test listed under Rattus norvegicus stood at 25%.
`CC(C)S(=O)(=O)N[C@H]1Cc2ccc(-n3nc(C(F)(F)F)c4c3CCCC4)cc2C1`: on Glutamate receptor 2 [3], the EC50 was under 300 µM.
Turning to `CC(C)S(=O)(=O)NC[C@H](C)c1ccc(-c2ccc(CCNS(C)(=O)=O)cc2)cc1` [MIBAMPATOR], it took 0.15 µM to reach a half-maximal effect on Glutamate receptor 4 [5] (EC50).
